Measured values published in PubChem BioAssay AID1918937 (Molecular Pharmacology Branch, DTP, NCI, 2023).
Values joined by “and” are separate entries in the source; they are usually repeats but may differ in a detail not shown here. Equal entries are not always repeated.

System: 521955-158-R2-J5-PDC complex spheroid viability
Assay: Anticancer human tumor 521955-158-R2-J5-PDC patient-derived pancreatic carcinoma cell line growth inhibition
Conditions: for viability, T/C: stronger effect = lower value
Method in brief: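 Complex spheroids of tumor cells with HUVEC and human MSCs, exposed to iadademstat combined with other agents. Each agent tested in half-log steps from near clinical Cmax (else 10 microM top), DMSO ≤0.25%.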

[1] = curve of first compound, second compound 0.1 µM
[2] = curve of first compound, second compound 0.316 µM
[3] = curve of first compound, second compound 1 µM
[4] = curve of first compound, second compound 3.16 µM
[5] = curve of first compound, second compound 10 µM
[6] = second compound 0.1 µM, first compound 0.0316 µM
[7] = second compound 0.1 µM, first compound 0.1 µM
[8] = second compound 0.1 µM, first compound 0.316 µM
[9] = second compound 0.1 µM, first compound 1 µM
[10] = second compound 0.1 µM, first compound 3.16 µM
[11] = second compound 0.1 µM, first compound 10 µM
[12] = second compound 0.316 µM, first compound 0.0316 µM
[13] = second compound 0.316 µM, first compound 0.1 µM
[14] = second compound 0.316 µM, first compound 0.316 µM
[15] = second compound 0.316 µM, first compound 1 µM
[16] = second compound 0.316 µM, first compound 3.16 µM
[17] = second compound 0.316 µM, first compound 10 µM
[18] = second compound 1 µM, first compound 0.0316 µM
[19] = second compound 1 µM, first compound 0.1 µM
[20] = second compound 1 µM, first compound 0.316 µM
[21] = second compound 1 µM, first compound 1 µM
[22] = second compound 1 µM, first compound 3.16 µM
[23] = second compound 1 µM, first compound 10 µM
[24] = second compound 3.16 µM, first compound 0.0316 µM
[25] = second compound 3.16 µM, first compound 0.1 µM
[26] = second compound 3.16 µM, first compound 0.316 µM
[27] = second compound 3.16 µM, first compound 1 µM
[28] = second compound 3.16 µM, first compound 3.16 µM
[29] = second compound 3.16 µM, first compound 10 µM
[30] = second compound 10 µM, first compound 0.0316 µM
[31] = second compound 10 µM, first compound 0.1 µM
[32] = second compound 10 µM, first compound 0.316 µM
[33] = second compound 10 µM, first compound 1 µM
[34] = second compound 10 µM, first compound 3.16 µM
[35] = second compound 10 µM, first compound 10 µM
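Further: spheroids exposed to agents for seven days.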
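Wherever viability, T/C is given: percent of DMSO vehicle control luminescence viability.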

Nc1ccn(C2OC(CO)C(O)C2(F)F)c(=O)n1 (configuration not stated) + NC1CCC(NC2CC2c2ccccc2)CC1
IC50 [1]: 0.0509 µM | IC50 [2]: 0.0555 µM | IC50 [3]: 0.0562 µM | IC50 [4]: 0.0501 µM | IC50 [5]: 0.0435 µM | viability, T/C (second compound 0.1 µM, first compound 0.000949 µM): 105% | viability, T/C (second compound 0.1 µM, first compound 0.003 µM): 104% | viability, T/C (second compound 0.1 µM, first compound 0.00949 µM): 96.8% | viability, T/C (second compound 0.1 µM, first compound 0.03 µM): 68.4% | viability, T/C (second compound 0.1 µM, first compound 0.0949 µM): 28.4% | viability, T/C (second compound 0.1 µM, first compound 0.3 µM): 16.3% | viability, T/C (second compound 0.316 µM, first compound 0.000949 µM): 105% | viability, T/C (second compound 0.316 µM, first compound 0.003 µM): 98.8% | viability, T/C (second compound 0.316 µM, first compound 0.00949 µM): 96.2% | viability, T/C (second compound 0.316 µM, first compound 0.03 µM): 79.7% | viability, T/C (second compound 0.316 µM, first compound 0.0949 µM): 24.2% | viability, T/C (second compound 0.316 µM, first compound 0.3 µM): 11.2% | viability, T/C (second compound 1 µM, first compound 0.000949 µM): 95.3% | viability, T/C (second compound 1 µM, first compound 0.003 µM): 97.2% | viability, T/C (second compound 1 µM, first compound 0.00949 µM): 90.1% | viability, T/C (second compound 1 µM, first compound 0.03 µM): 74.8% | viability, T/C (second compound 1 µM, first compound 0.0949 µM): 29.5% | viability, T/C (second compound 1 µM, first compound 0.3 µM): 12.6% | viability, T/C (second compound 3.16 µM, first compound 0.000949 µM): 104% | viability, T/C (second compound 3.16 µM, first compound 0.003 µM): 96.6% | viability, T/C (second compound 3.16 µM, first compound 0.00949 µM): 82.6% | viability, T/C (second compound 3.16 µM, first compound 0.03 µM): 69.5% | viability, T/C (second compound 3.16 µM, first compound 0.0949 µM): 28.8% | viability, T/C (second compound 3.16 µM, first compound 0.3 µM): 12.8% | viability, T/C (second compound 10 µM, first compound 0.000949 µM): 101% | viability, T/C (second compound 10 µM, first compound 0.003 µM): 98% | viability, T/C (second compound 10 µM, first compound 0.00949 µM): 83.7% | viability, T/C (second compound 10 µM, first compound 0.03 µM): 63.2% | viability, T/C (second compound 10 µM, first compound 0.0949 µM): 26% | viability, T/C (second compound 10 µM, first compound 0.3 µM): 10.4%

O=C(c1cc(Cc2n[nH]c(=O)c3ccccc23)ccc1F)N1CCN(C(=O)C2CC2)CC1 + NC1CC1c1ccc(-c2cccc(O)c2)cc1
IC50 [1]: > 10 µM | IC50 [2]: > 10 µM | IC50 [3]: > 10 µM | IC50 [4]: > 10 µM | IC50 [5]: > 10 µM | viability, T/C [6]: 80.9% | viability, T/C [7]: 87.5% | viability, T/C [8]: 88.4% | viability, T/C [9]: 87.4% | viability, T/C [10]: 81.5% | viability, T/C [11]: 69.1% | viability, T/C [12]: 90.5% | viability, T/C [13]: 82.3% | viability, T/C [14]: 89.1% | viability, T/C [15]: 74.7% | viability, T/C [16]: 74.6% | viability, T/C [17]: 66.2% | viability, T/C [18]: 77.9% | viability, T/C [19]: 79.7% | viability, T/C [20]: 79.7% | viability, T/C [21]: 77.1% | viability, T/C [22]: 67% | viability, T/C [23]: 59.5% | viability, T/C [24]: 81.8% | viability, T/C [25]: 82.2% | viability, T/C [26]: 83.3% | viability, T/C [27]: 75.6% | viability, T/C [28]: 69.1% | viability, T/C [29]: 55.8% | viability, T/C [30]: 87.7% | viability, T/C [31]: 84.9% | viability, T/C [32]: 83.4% | viability, T/C [33]: 78.4% | viability, T/C [34]: 68.1% | viability, T/C [35]: 55.7%

CC1COCCN1c1cc(C2(S(C)(=N)=O)CC2)nc(-c2ccnc3[nH]ccc23)n1 (configuration not stated)
viability, T/C (compound 0.0316 µM): 108% and 112% | viability, T/C (compound 0.1 µM): 102% and 100% | viability, T/C (compound 0.316 µM): 94.3% and 111% | viability, T/C (compound 1 µM): 13.1% and 18.6% | viability, T/C (compound 3.16 µM): 9.05% and 12.5% | viability, T/C (compound 10 µM): 13.5% and 17.8% | IC50 (curve of compound): 0.593 µM and 0.655 µM

CC1(C)CCC(CN2CCN(c3ccc(C(=O)NS(=O)(=O)c4ccc(NCC5CCOCC5)c([N+](=O)[O-])c4)c(Oc4cnc5[nH]ccc5c4)c3)CC2)=C(c2ccc(Cl)cc2)C1 + NC1CC1c1ccc(-c2cccc(O)c2)cc1
IC50 [1]: 3.98 µM | IC50 [2]: 3.86 µM | IC50 [3]: 3.9 µM | IC50 [4]: 4.07 µM | IC50 [5]: 3.86 µM | viability, T/C [6]: 93.2% | viability, T/C [7]: 86% | viability, T/C [8]: 95.6% | viability, T/C [9]: 92.8% | viability, T/C [10]: 62.4% | viability, T/C [11]: 0.69% | viability, T/C [12]: 81.4% | viability, T/C [13]: 93.3% | viability, T/C [14]: 91.6% | viability, T/C [15]: 84.6% | viability, T/C [16]: 60.4% | viability, T/C [17]: 1.04% | viability, T/C [18]: 82% | viability, T/C [19]: 92.6% | viability, T/C [20]: 96.4% | viability, T/C [21]: 86.9% | viability, T/C [22]: 61% | viability, T/C [23]: 0.96% | viability, T/C [24]: 87.9% | viability, T/C [25]: 89.4% | viability, T/C [26]: 99.4% | viability, T/C [27]: 90.2% | viability, T/C [28]: 63.7% | viability, T/C [29]: 1.07% | viability, T/C [30]: 98.4% | viability, T/C [31]: 103% | viability, T/C [32]: 107% | viability, T/C [33]: 86.6% | viability, T/C [34]: 61.2% | viability, T/C [35]: 0.78%
